The source of these data is patent publication US11649218B2, “C-Abl tyrosine kinase inhibitory compound embodiments and methods of making and using the same” (The USA, as represented by the Secretary, Dept. of Health …, priority 2018, dated 2023).

The assay concerns Leukemia K562 cell. The experiment in a line: Leukemia K562 cell proliferation/viability assay (CellTiterGlo, 48 hours). The class given is cell-based. Set-up: unit not given here. Particulars: K562 cells. The protocol:
C-Abl is encoded by the ABL1 gene (NCBI Gene ID NO. 25). […] Assays for determining if a small molecule inhibits c-Abl activity are known. Non-limiting examples include cell proliferation assays using cancer cells that are BCR-Abl positive and depend on BCR-Abl for growth, such as the leukemia cell line K562. […] In some embodiments described herein, compounds are tested for ability to reduce K562 cell proliferation in an HTS adapted assay which measures cell viability using the reagent CellTiterGlo after 48 hours treatment.
Background: In ATP-based viability assays light output follows the ATP content of the culture.
Compound `CC(C)(O)Cn1cc(-c2ccc3c(c2)C(=O)Nc2cc(OC(F)(F)F)ccc2O3)cn1` [NCGC00387294, 2-(1-(2-Hydroxy-2-methylpropyl)-1H-pyrazol-4-yl)-8-(trifluoromethoxy)dibenzo[b,f][1,4]oxazepin-11(10H)-one] returned an Efficacy of −82.3.
With `CC(C)(CO)n1cc(-c2ccc3c(c2)C(=O)Nc2cc(OC(F)(F)F)ccc2O3)cn1` [NCGC00387295, 2-(1-(Hydroxy-2-methylpropan-2-yl)-1H-pyrazol-4-yl)-8-(trifluoromethoxy)dibenzo[b,f][1,4]oxazepin-11(10H)-one] the figure was −87.7; with `O=C1Nc2cc(OC(F)(F)F)ccc2Oc2ccc(-c3cnn(CCN4CCOCC4)c3)cc21` [NCGC00387296, 2-(1-(2-Morpholinoethyl)-1H-pyrazol-4-yl)-8-(trifluoromethoxy)dibenzo[b,f][1,4]oxazepin-11(10H)-one], −81.7; with `CN(C)CCn1cc(-c2ccc3c(c2)C(=O)Nc2cc(OC(F)(F)F)ccc2O3)cn1` [NCGC00387297, 2-(1-(2-(Dimethylamino)ethyl)-1H-pyrazol-4-yl)-8-(trifluoromethoxy)dibenzo[b,f][1,4]oxazepin-11(10H)-one], −115.7.
With `O=C1Nc2cc(OC(F)(F)F)ccc2Oc2ccc(-c3cnn(C4COC4)c3)cc21` [NCGC00387298, 2-(1-(Oxetan-3-yl)-1H-pyrazol-4-yl)-8-(trifluoromethoxy)dibenzo[b,f][1,4]oxazepin-11(10H)-one], the Efficacy was −93.8.
Compound `COC(=O)c1ccc2c(c1)C(=O)Nc1cc(OC(F)(F)F)ccc1O2` [NCGC00387394] gave an Efficacy of 0.0.
With `O=C1Nc2cc(OC(F)(F)F)ccc2Oc2ccc(-c3cnn(CCO)c3)cc21` [NCGC00387403, 2-(1-(2-Hydroxyethyl)-1H-pyrazol-4-yl)-8-(trifluoromethoxy)dibenzo[b,f][1,4]oxazepin-11(10H)-one] the figure was −37.6.
`NC(=O)Cn1cc(-c2ccc3c(c2)C(=O)Nc2cc(OC(F)(F)F)ccc2O3)cn1` [NCGC00387404, 2-(4-(11-Oxo-8-(trifluoromethoxy)-10,11-dihydrodibenzo[b,f][1,4]oxazepin-2-yl)-11-pyrazol-1-yl)acetamide] came in with an Efficacy of −8.8.
With `O=C1Nc2cc(OC(F)(F)F)ccc2Oc2ccc(B(O)O)cc21` [NCGC00387437, (11-Oxo-8-(trifluoromethoxy)-10,11-dihydrodibenzo[b,f][1,4]oxazepin-2-yl)boronic acid], the Efficacy was −82.6.
As for `O=C(O)c1ccc2c(c1)C(=O)Nc1cc(OC(F)(F)F)ccc1O2` [NCGC00387752], the Efficacy is 0.0.
The compound `O=C1Nc2cc(OC(F)(F)F)ccc2Oc2ccc(-c3ccc(CN4CCOCC4)s3)cc21` [NCGC00388536, 2-(5-(Morpholinomethyl)thiophen-2-yl)-8-(trifluoromethoxy)dibenzo[b,f][1,4]oxazepin-11(10H)-one] yielded an Efficacy of −83.1.
With `NCc1ccc(-c2ccc3c(c2)C(=O)Nc2cc(OC(F)(F)F)ccc2O3)s1` [NCGC00388547, 2-(5-(Aminomethyl)thiophen-2-yl)-8-(trifluoromethoxy)dibenzo[b,f][1,4]oxazepin-11(10H)-one] the figure was −91.7.
With `CC(=O)NCc1ccc(-c2ccc3c(c2)C(=O)Nc2cc(OC(F)(F)F)ccc2O3)s1` [NCGC00388557, N-((5-(11-Oxo-8-(trifluoromethoxy)-10,11-dihydrodibenzo[b,f][1,4]oxazepin-2-yl)thiophen-2-yl)methyl)acetamide] the figure was −81.9; with `O=C1Nc2cc(OC(F)(F)F)ccc2Oc2ccc(-c3ccc(CN4CCNCC4)s3)cc21` [NCGC00388560, 2-(5-(Piperazin-1-ylmethyl)thiophen-2-yl)-8-(trifluoromethoxy)dibenzo[b,f][1,4]oxazepin-11(10H)-one], −95.0.
Next, `CC(=O)c1csc(-c2ccc3c(c2)C(=O)Nc2cc(OC(F)(F)F)ccc2O3)c1` [NCGC00388580, 2-(4-Acetylthiophen-2-yl)-8-(trifluoromethoxy)dibenzo[b,f][1,4]oxazepin-11(10H)-one]: −92.6; `N#CCn1cc(-c2ccc3c(c2)C(=O)Nc2cc(OC(F)(F)F)ccc2O3)cn1` [NCGC00388626, 2-(4-(11-Oxo-8-(trifluoromethoxy)-10,11-dihydrodibenzo[b,f][1,4]oxazepin-2-yl)-1H-pyrazol-1-yl)acetonitrile]: −34.8; `O=C1Nc2cc(OC(F)(F)F)ccc2Oc2ccc(CCB(O)O)cc21` [NCGC00390141, (2-(11-Oxo-8-(trifluoromethoxy)-10,11-dihydrodibenzo[b,f][1,4]oxazepin-2-yl)ethyl)boronic acid]: −45.8.
Compound `O=C1Nc2cc(OC(F)(F)F)ccc2Oc2ccc(CCCB(O)O)cc21` [NCGC00390142, (3-(11-Oxo-8-(trifluoromethoxy)-10,11-dihydrodibenzo[b,f][1,4]oxazepin-2-yl)propyl)boronic acid] came in with an Efficacy of −103.4.
As for `O=C1Nc2cc(OC(F)(F)F)ccc2Oc2ccc(-c3cnc4ccnn4c3)cc21` [NCGC00409812, 2-(pyrazolo[1,5-a]pyrimidin-6-yl)-8-(trifluoromethoxy)dibenzo[b,f][1,4]oxazepin-11(10H)-one], the Efficacy is listed as −69.0.
In the case of `O=C1Nc2cc(OC(F)(F)F)ccc2Oc2ccc(-c3cccc(-c4ccn[nH]4)c3)cc21` [NCGC00411874, 2-(3-(1H-Pyrazol-5-yl)phenyl)-8-(trifluoromethoxy)dibenzo[b,f][1,4]oxazepin-11(10H)-one], the Efficacy is −84.3.
For `CC(C)(O)c1cccc(-c2ccc3c(c2)C(=O)Nc2cc(OC(F)(F)F)ccc2O3)c1` [NCGC00411876, 2-(3-(2-Hydroxypropan-2-yl)phenyl)-8-(trifluoromethoxy)dibenzo[b,f][1,4]oxazepin-11(10H)-one], the Efficacy is on record as −86.3.
The compound `O=C1Nc2cc(OC(F)(F)F)ccc2Oc2ccc(-c3cccc(B(O)O)c3)cc21` [NCGC00415019, (3-(11-Oxo-8-(trifluoromethoxy)-10,11-dihydrodibenzo[b,j][1,4]oxazepin-2-v)phenyl)boronic acid] had an Efficacy of −79.0.
Regarding `O=C1Nc2cc(OC(F)(F)F)ccc2Oc2ccc(-c3cccc(CO)c3)cc21` [NCGC00415061, 2-(3-(Hydroxymethyl)phenyl)-8-(trifluoromethoxy)dibenzo[b,f][1,4]oxazepin-11(10H)-one], the Efficacy was −71.4.
Consider `O=C1Nc2cc(OC(F)(F)F)ccc2Oc2ccc(-c3cccc(-c4nn[nH]n4)c3)cc21` [NCGC00420743, 2-(3-(2H-Tetrazol-5-yl)phenyl)-8-(trifluoromethoxy)dibenzo[b,f][1,4]oxazepin-11(10H)-one], for which the Efficacy was found to be 0.0.
On to `N#Cc1ccc2c(c1)NC(=O)c1cc(-c3ccnc(N4CCOCC4)c3)ccc1O2` [NCGC00481503, 2-(2-Morpholinopyridin-4-yl)-11-oxo-10,11-dihydrodibenzo[b,f][1,4]oxazepine-8-carbonitrile], for which the Efficacy is reported as −80.5.
Next, `O=C1Nc2cc(OCC(F)(F)F)ccc2Oc2ccc(-c3ccnc(N4CCOCC4)c3)cc21` [NCGC00481504, 2-(2-Morpholinopyridin-4-yl)-8-(2,2,2-trifluoroethoxy)dibenzo[b,f][1,4]oxazepin-11(10H)-one]: −85.1.
